Source: US20230339896A1, “HPK1 INHIBITORS AND USES THEREOF” (QILU REGOR THERAPEUTICS INC., priority 2020, published 2023)

Test system: MDCK
Assay: MDCK permeability assay
Type: in vitro ADME
Settings: pH 7.4
Description: This assay is for generating screening data only, and to estimate the intestinal absorption potential of drug candidates. The study will be conducted in accordance with International Bioethical Standards “World MedicalAssociation Declaration of Helsinki.
Cell line: • ▪ MDCK (ATCC), or MDCK MDR1 (NKI).
Prepare donor buffer: • For A-to-B direction: • ✔ HBSS buffer with 0.3% DMSO and 5 µM Lucifer Yellow (LY): add 150 µL DMSO and 125 µL LY (2 mM) into 50 mL HBSS buffer (pH 7.4). • ✔ HBSS buffer with 0.1% DMSO and 5 µM Lucifer Yellow (LY): add 50 µL DMSO and 125 µL LY (2 mM) into 50 mL HBSS buffer (pH 7.4). • ✔ HBSS buffer with 5 µM Lucifer Yellow (LY): add 125 µL LY (2 mM) into 50 mL HBSS buffer (pH 7.4). • For B-to-A direction: • ✔ HBSS buffer with 0.3% DMSO: add 150 µL DMSO into 50 mL HBSS buffer (pH 7.4). • ✔ HBSS buffer with 0.1% DMSO: add 50 µL DMSO into 50 mL HBSS buffer (pH 7.4). • ✔ HBSS buffer without DMSO. • Prepare receiver buffer: • For A-to-B direction: Prepare HBSS buffer with 0.4% DMSO: add 200 µL DMSO into 50 mL HBSS buffer (pH 7.4) • For B-to-A direction: Prepare HBSS buffer with 0.4% DMSO and 5 µM LY: add 200 uL DMSO and 125 µL LY (2 mM) into 50 mL HBSS buffer (pH 7.4) • Controls: • Prepare 10 mM stock concentrations of compound in DMSO and Lucifer Yellow in assay buffer using the following formula: • (Actual Weight/Molecular Weight)/mL solvent =10 mM • Reference compound: Erythromycin, Metoprolol, Atenolol
MDCK assay plates are seeded 3-4 days prior to running the assay. 24-well plates are seeded at a cell density of 0.88 × 10^5/well in a 400 µL apical chamber volume (2.2×10^5 /mL) with a 25 mL volume of growth medium to the 24-well basal chamber. Assay plates are generally provided with a growth medium change 24 hours prior to the assay.
MDCK assay plates are rinsed with HBSS+ buffer prior to running the assay. After rinsing, fresh HBSS+ is added to the assay plate in a 400 µL apical chamber volume and a 0.8 mL HBSS+ basal chamber volume. Measure the electrical resistance across the monolayer using the Millicell ERS system ohm meter. (The cells will be used if TEER is higher than 100 ohm*cm^2).
Preparation of the cell plates: • Remove the buffer from the apical side and basolateral side. Add 600 µL of donor solution (for A-to-B) or 500 µL of receiver solution (for B-to-A) to the apical wells based on plate map. • A fresh basolateral plate is prepared by adding 800 µL of receiver solution (for A-to-B) or 900 µL of donor solution (B-to-A) to the well of a new 24-well plate. • Put the apical plate and basolateral plate into 37° C. incubator.
Preparation of analytical plate: • After 5 min, transfer 100 µL of samples from all donors (for both A-to-B and B-to-A) into appropriate wells of a sample plate for D0. And transfer 100 µL of samples from all apical chambers (the donor of A-to-B and receiver of B-to-A) into appropriate wells of a microplate for Lucifer Yellow D0 (D0 LY) • Lay the apical plate to the basolateral plate to start transport process. • At 90 min, separate the apical and basolateral plates and transfer 100 µL of samples from all donors (for both A-to-B and B-to-A) into appropriate wells of a new sample plate for D90, and transfer 200 µL of samples from all receivers into appropriate wells of a sample plate for R90. Transfer 100 µL of samples from all basolateral chambers (receiver of A-to-B and donor of B-to-A) into appropriate wells of a new microplate for Lucifer Yellow R90 (R90 LY). • Determine LY permeability by reading D0 LY and R90 LY at an excitation wavelength of 485 nm and an emission wavelength of 535 nm using a fluorescent plate reader. • Sample preparation: • For receiver solution: 60 µL of sample + 60 µL ACN with IS (200 ng/mL Osalmid) • For donor solution: 6 µL of sample + 54 µL 0.4% DMSO/HBSS + 60 µL ACN with IS (200 ng/mL Osalmid) […]

Compound: CN1CCc2cc(F)c(Nc3ncc(Cl)c(N4C[C@](C)(CC(=O)O)c5ccccc54)n3)cc2C1 (single isomer, unassigned) [Example 5, (R)-2-[1-[5-chloro-2-[(6-fluoro-2-methyl-3,4-dihydro-1H-isoquinolin-7-yl)amino]pyrimidin-4-yl]-3-methyl-indolin-3-yl]acetic acid or (S)-2-[1-[5-chloro-2-[(6-fluoro-2-methyl-3,4-dihydro-1H-isoquinolin-7-yl)amino]pyrimidin-4-yl]-3-methyl-indolin-3-yl]acetic acid]
- MDCK Permeability (A-B) (×10-6 cm/s) (A-B): 11.9 ×10-6 cm/s
- MDCK Permeability (B-A) (×10-6 cm/s) (B-A): 52.3 ×10-6 cm/s
